Assay results taken from the METLIN SMRT retention time set (Domingo-Almenara et al. 2019).

Experiment: gradient 5% acetonitrile 3 min, to 50% in 2 min, to 85% in 15 min, held 3 min, 100 µL/min
Conditions: column: Zorbax Extend-C18 2.1 x 50 mm; eluents: water / acetonitrile, 0.1% formic acid
In short: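 Pure standards were analyzed in mixtures of ~100 molecules using HPLC coupled to a quadrupole time-of-flight mass spectrometer, in both positive and negative ionization mode. Separation used a Zorbax Extend-C18 column (2.1 × 50 mm, 1.8 μm) at 100 μL/min, with water and acetonitrile each containing 0.1% formic acid. Dead and dwell volumes were 40 μL and 900 μL, and data were collected over 3 months. Retention time was read from computationally picked adduct peaks, each inspected manually.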
Work on `Cc1cccc(-c2nnc(-c3nc(NCCN4CCOCC4)c4ccccc4n3)o2)c1` yielded an RP-LC retention time of 662 s. Work on `CCCS(=O)(=O)N1CC(=O)N(c2ccc(Cl)cc2C)C(C)(C(=O)NC2CCCCC2)C1` (centres undefined) yielded an RP-LC retention time of 1040 s. With `Cc1nc(-c2ccc(C(=O)N3CCC(C)CC3)cc2)no1` the RP-LC retention time was 840 s. `COc1ccc(C(CC(=O)N2CCN(C)CC2)N2Cc3ccccc3C2=O)cc1OC` (centres undefined) gave an RP-LC retention time of 609 s. For `COc1ccc(-c2ncc3c(n2)CCN(S(=O)(=O)c2ccccc2Cl)C3)cc1`, the RP-LC retention time was 1070 s. Work on `Cc1ccc(C)c(C(=O)Nc2cccn3cnnc23)c1` yielded an RP-LC retention time of 734 s. `O=C1COc2cc(S(=O)(=O)N3CCC(C(=O)NC4CCCC4)CC3)c(Cl)cc2N1` showed an RP-LC retention time of 735 s. In the case of `Cc1ccc2nc(C(=O)NCc3ccc(OC(C)C)cc3)cn2c1`, the RP-LC retention time is reported as 731 s. Work on `CCN1C[C@H](C)n2c(c(O)c3c(=O)n(Cc4ccc(F)c(Cl)c4)nc(C(=O)NC)c32)C1=O` yielded an RP-LC retention time of 871 s. For `Cc1cccc(S(=O)(=O)NCc2c(-c3ccccc3)nc3sc(C)nn23)c1`, the RP-LC retention time was 802 s. In the case of `COc1cc(NC(=O)CN2C(=O)CC(c3ccccc3)=Nc3ccccc32)cc(OC)c1`, the RP-LC retention time is reported as 973 s. Compound `CCn1cc(C)c(C(=O)O)c1CC(=O)Nc1cc(Cl)c(OC)cc1OC` has an RP-LC retention time of 901 s. With `CCCCCn1c(=O)c2ccccc2n(Cc2nc(-c3ccc(OC)c(OC)c3)no2)c1=O` the RP-LC retention time was 1120 s. For `CC(=O)n1nc(-c2ccccc2Cl)nc1N`, the RP-LC retention time was 729 s. For `Cc1cc(=O)n(CC(=O)Nc2ccc(F)cc2)c(-c2ccc(F)cc2)n1`, the RP-LC retention time was 1040 s. For `COc1cccc(C(=O)N2CCCn3nc(-c4ccc(C)cc4)cc3C2)c1OC`, the RP-LC retention time was 885 s. For `Cn1nc(C(=O)Nc2cccnc2)ccc1=O`, the RP-LC retention time was 493 s. Work on `O=C(NCc1cccc(F)c1)C1CC(=O)N(c2n[nH]c3cccc(F)c23)C1` (centres undefined) yielded an RP-LC retention time of 705 s. `O=C(NCCc1ccccc1)N1CCCn2nc(-c3ccncc3)cc2C1` showed an RP-LC retention time of 583 s. `Cc1ccc(CC(=O)Nc2cc(-c3ccc(C)s3)no2)cc1` gave an RP-LC retention time of 1050 s. For `O=C(Cn1c(=O)cnc2cc(C(=O)NC3CCCC3)ccc21)NCc1ccc(F)cc1F`, the RP-LC retention time was 721 s. In the case of `CCN1CCN(c2c(S(=O)(=O)c3ccc(Cl)cc3)cnc3cc(OC)c(OC)cc23)CC1`, the RP-LC retention time is reported as 634 s. Work on `COc1cc(-c2cccc(Cl)c2)nc2ccc(NC(=O)c3ccco3)cc12` yielded an RP-LC retention time of 790 s. Work on `O=C(NC1CCCc2ccccc21)C1CCN(C(=O)C2Sc3ccccc3NC2=O)CC1` (centres undefined) yielded an RP-LC retention time of 793 s. Work on `Cc1ccc(-c2cc(C(=O)NCc3ccc4c(c3)OCO4)ccn2)s1` yielded an RP-LC retention time of 902 s. With `CCc1nc2cccnc2n1C1CCN(C(=O)c2ccc(C(F)(F)F)cc2)C1` (centres undefined) the RP-LC retention time was 649 s. Work on `Cc1cccc(N2CCN([C@H]3CS(=O)(=O)C[C@@H]3S(=O)(=O)c3ccccc3)CC2)c1` yielded an RP-LC retention time of 876 s. `Cc1c(C)n(-c2ccc(Cl)cc2)c2ncn(CC(=O)N3CCCC3)c(=O)c12` showed an RP-LC retention time of 803 s. For `O=C(NCC1(c2cccs2)CCOCC1)c1ccsc1`, the RP-LC retention time was 706 s. `CCN1CCn2cc(S(=O)(=O)Nc3ccc(F)c(C)c3)cc2C1=O` gave an RP-LC retention time of 742 s. `O=C(c1ccc(F)cc1)N1CCN(c2cnn3c(C4CC4)nnc3c2)CC1` gave an RP-LC retention time of 636 s. `COc1cccc(-c2cc3n(n2)CCCN(C(=O)NCc2ccco2)C3)c1` gave an RP-LC retention time of 850 s. `CN(C)C(=O)c1ccc2oc(CN3CCN(C(=O)NC(C)(C)C)CC3)nc2c1` gave an RP-LC retention time of 597 s. Compound `CCCN1C(=O)CCc2cc(NC(=O)c3cc4ccccc4[nH]3)ccc21` has an RP-LC retention time of 882 s. For `Cn1ncc2c3ccccc3n(CC(=O)NCCCN3CCCC3=O)c2c1=O`, the RP-LC retention time was 615 s. Work on `COC(=O)C1CCN(S(=O)(=O)CCCOc2cccc3c2OC(C)(C)C3)CC1` yielded an RP-LC retention time of 936 s. For `O=C(Cn1c(N2CCCCC2)nc2ccccc2c1=O)NCc1ccc(Cl)cc1`, the RP-LC retention time was 946 s. Compound `Cc1nnc2cc(N3CCN(S(=O)(=O)c4cccc(C(F)(F)F)c4)CC3)cnn12` has an RP-LC retention time of 730 s. Compound `COc1cccc(CCC(=O)Nc2ccc3c(c2)Sc2ncccc2C(=O)N3C)c1` has an RP-LC retention time of 1210 s. `CCCc1cc(N2CCN(C(=O)c3cccs3)CC2)nc2nnc(C)n12` showed an RP-LC retention time of 613 s. `Cc1onc(-c2cccc(Br)c2)c1C(=O)NCCCOC(C)C` showed an RP-LC retention time of 880 s. For `CCS(=O)(=O)NCC(c1cccnc1)N1CCN(c2ccccc2F)CC1` (centres undefined), the RP-LC retention time was 561 s. Work on `Cc1cc2ncn(CC3CCN(C(=O)c4ccsc4)CC3)c2cc1C` yielded an RP-LC retention time of 583 s. `CCC1CN(C(=O)N2CCC(C(=O)NCCc3ccco3)CC2)c2cc(C)ccc2O1` (centres undefined) showed an RP-LC retention time of 706 s. For `O=C(NC1CCN(Cc2ccccc2)CC1)C1CCCN(S(=O)(=O)N2CCOCC2)C1` (centres undefined), the RP-LC retention time was 593 s. Work on `Cc1ccccc1NS(=O)(=O)c1cc2c(=O)n(C)ncn2c1` yielded an RP-LC retention time of 801 s. With `CCc1nnc(NC(=O)CN2C(=O)C3CCCCN3c3ccc(S(=O)(=O)N(C)C)cc32)s1` (centres undefined) the RP-LC retention time was 800 s. With `CCOC(=O)c1c(C)[nH]c(CCC(=O)NC(C)c2ccccc2)c1C` (centres undefined) the RP-LC retention time was 853 s. With `O=C(C1CCCC1)N1[C@H]2CC[C@@H]1c1cnc(-c3ccc(F)cc3)nc1C2` the RP-LC retention time was 984 s. Compound `Cc1cc(NC(=O)c2sc(NCc3ccco3)nc2C)ccc1Cl` has an RP-LC retention time of 956 s. With `COC(=O)c1c(C)c(C(=O)C(C)N(CCC(C)C)C(=O)c2cccc(F)c2)c(C)n1C` (centres undefined) the RP-LC retention time was 1100 s. Work on `Cn1c(C2CCN(C(=O)c3ccc(C(F)(F)F)s3)C2)nc2cccnc21` (centres undefined) yielded an RP-LC retention time of 716 s. `Cc1ccc(C)c(N2CCN(C(=O)c3csc(C(=O)NC4CC4)n3)CC2)c1` showed an RP-LC retention time of 968 s. Compound `COc1ccc(CCNC[C@H](O)c2ccc(O)cc2)cc1OC` has an RP-LC retention time of 656 s. `Cc1ccn2cc(-c3ccc(NC(=O)c4ccccc4Br)cc3)nc2n1` showed an RP-LC retention time of 647 s. Compound `Cc1ccc(CNC(=O)c2cnn3c(-c4ccc(Cl)cc4)ccnc23)o1` has an RP-LC retention time of 1050 s. In the case of `COCC1(O)CCOC2(CCN(Cc3cccc(F)c3F)CC2)C1` (centres undefined), the RP-LC retention time is reported as 589 s. Compound `CCCCN1CCN(S(=O)(=O)c2cc(-c3nnc(C4CC4)o3)co2)CC1` has an RP-LC retention time of 633 s. In the case of `O=C(NC1CCN(c2cc(-c3ccc(Cl)cc3)[nH]n2)C1)c1ccncc1` (centres undefined), the RP-LC retention time is reported as 643 s. In the case of `CC1(C)S[C@@H]2[C@H](NC(=O)Cc3ccccc3)C(=O)N2C1C(=O)O` (some centres undefined), the RP-LC retention time is reported as 732 s. Compound `CCCNC(=O)C1CCCN(c2nc3ncn(CC(=O)NCc4ccc(C)cc4)c(=O)c3s2)C1` (centres undefined) has an RP-LC retention time of 715 s. `Fc1ccc(Br)cc1-c1nc2ccc(Cl)cn2c1Nc1ccc2c(c1)OCO2` gave an RP-LC retention time of 945 s. `COCCN1C(=O)CCc2cc(NC(=O)Cc3ccccc3OC)ccc21` showed an RP-LC retention time of 731 s. In the case of `CCCNC(=O)NC1CCN(c2nc3cccnc3n(Cc3ccc(C)cc3)c2=O)CC1`, the RP-LC retention time is reported as 1010 s. Compound `O=C1Nc2ccccc2C1(c1ccc(O)cc1)c1ccc(O)cc1` has an RP-LC retention time of 755 s. `N#CCCSc1ccccc1NC(=O)c1ccc(S(=O)(=O)N2CCOCC2)cc1` gave an RP-LC retention time of 760 s. With `CCN1c2cc(F)ccc2C(=O)NC12CCN(C(=O)c1ccc(OC)cc1)CC2` the RP-LC retention time was 780 s. `CCCC(NC(=O)c1ccc(C)cc1)C(=O)Nc1nc2ccccc2[nH]1` (centres undefined) showed an RP-LC retention time of 716 s. Work on `COc1ccc(-c2nnc3sc(-c4cc(C)on4)nn23)cc1` yielded an RP-LC retention time of 864 s. Compound `O=C(COc1ncccn1)NC1CCCCC1` has an RP-LC retention time of 624 s. In the case of `CCC(=O)Nc1ccc(S(=O)(=O)NCCc2ccc(N(C)C)cc2)c(C)c1`, the RP-LC retention time is reported as 570 s. In the case of `COc1ccc(-c2noc(CCCC(=O)Nc3nc(-c4ccc(Cl)cc4)c(C)s3)n2)cc1`, the RP-LC retention time is reported as 1190 s. `Cn1c(=O)c2nc(SCCC(=O)Nc3c(F)cccc3F)n(C)c2n(C)c1=O` showed an RP-LC retention time of 706 s. `CC(C)Cn1c(=O)c(C(=O)NCc2ccccc2F)nc2cccnc21` showed an RP-LC retention time of 868 s. In the case of `COc1ccc(-c2cc3nn(CC(=O)Nc4cc(F)ccc4C)c(=O)n3c(C)n2)cc1`, the RP-LC retention time is reported as 885 s. In the case of `Cn1c(COc2ccc(Cl)cc2)nc2ccccc21`, the RP-LC retention time is reported as 647 s. In the case of `O=C1CC(c2ccc(C(=O)O)cc2)c2scc(-c3ccccc3F)c2N1` (centres undefined), the RP-LC retention time is reported as 804 s. In the case of `Cc1ccc(Cl)cc1NC(=O)Cn1cnc2nc3c(cc2c1=O)CCCC3`, the RP-LC retention time is reported as 783 s. For `COc1nn(C)cc1C(=O)Nc1nc(-c2cc(Cl)sc2Cl)cs1`, the RP-LC retention time was 1210 s. `O=C(Cn1nc2c(cc1=O)CCCCC2)Nc1nc(-c2ccncc2)cs1` showed an RP-LC retention time of 620 s. For `COc1ccc(NC(=O)c2sc3[nH]c(=O)c(C(=O)O)cc3c2N)c(OC)c1`, the RP-LC retention time was 681 s. For `Cc1nc(-c2ccc(-c3noc(C(NS(=O)(=O)c4ccccc4)C(C)C)n3)cc2)cs1` (centres undefined), the RP-LC retention time was 1120 s. `Cc1ccc(NC(=O)CSc2nnc3c4cc(-c5ccc(F)cc5)nn4ccn23)cc1Cl` showed an RP-LC retention time of 1010 s. Compound `CCCNC(=O)CN1C(=O)CCCc2cc(S(=O)(=O)N3CCCCCC3)ccc21` has an RP-LC retention time of 803 s. In the case of `O=C(NCc1c(F)cccc1F)C(=O)NCc1n[nH]c(=O)c2ccccc12`, the RP-LC retention time is reported as 695 s. `COc1ccc(-c2noc(C3CCCN3C(=O)CNC(=O)c3ccccc3)n2)cc1` (centres undefined) showed an RP-LC retention time of 792 s. With `COc1cccc(C2CC(c3ccc(Br)cc3)=NC3(CCN(C)CC3)N2)c1O` (centres undefined) the RP-LC retention time was 620 s. `CCOc1cc(-c2ccc(F)cc2)nc2ccc(NC(=O)C3CC3)cc12` showed an RP-LC retention time of 721 s. For `CCOc1ccc(CNC(=O)c2snc(C(=O)NCc3ccc(F)cc3)c2N)cc1`, the RP-LC retention time was 1040 s.
